Experiments:
[1] = test system: Cl^− secretion induced by forskolin; conditions: rat distal colon; cited from earlier work
distal colonic mucosa = experiment: Lumen alkalinization response to [Ca^2+]o (lumen pH, Ussing chamber); parameters: species or system rat; conditions: for lumen alkalinization rate: mean±SE, n=3
Protocol: Experiments were performed using non-fasting male Sprague-Dawley rats and C57BL/6 mice. Rats weighting 100-400 g were obtained from Charles River Laboratories. Mice lacking CaSR expression in intestinal epithelial cells (CaSR^−/−) and their CaSR^+/+ littermates were bred and maintained. CaSR^−/− mice were generated as previously described. Briefly, CaSR flox/flox mice were bred with transgenic mice expressing Cre Recombinase under the control of the villin 1 promoter and genotyped prior to all experiments after an approximate 10-12 generations. Mice were used at 5-10 weeks of age. Animals were fed and maintained on regular chow (Harlan) with free access to water before sacrifice. Animals were sacrificed with standard CO2 inhalation followed by cervical dislocation. The colons were isolated, cut open along the mesenteric border into a flat sheet, and flushed with ice-cold Ringer solutions. Mucosa from the distal colon were carefully hand-stripped off of serosal, muscular and submucosal layers as described and a pair of adjacent mucosal segments were incised and mounted into Ussing chambers. In some experiments, stripped mucosa was incised longitudinally into two equal pieces in order to facilitate comparisons between control and treatment. Short-circuit current and transepithelial resistance differences between these two adjacent tissues were less than 15%.
Stripped mucosal sheets were mounted into Ussing chambers (window area=0.3-0.5 cm^2, Physiologic Instruments, San Diego, Calif.). The mucosal side of tissue was bathed with an unbuffered HCO3^−-free Cl^− Ringer solution (see Table 2 for detailed composition) circulated by a gas lift with 100% O2 while the serosal side was bathed with buffered Cl^− Ringer solution (pH 7.4) that contained 25 mM HCO3^− and gassed with 5% CO2/95% O2. Each side contained 3-5 ml of solution and the temperature of the solution was adjusted to and maintained at 37° C. by heated water-jacketed reservoirs. Experiments were performed under short-circuit conditions (Voltage-Current Clamp, VCC MC8; Physiologic Instruments, San Diego, Calif.) to maintain the transepithelial potentials at 0 mV, except for brief interruption at 20-second intervals for recording of open-circuit potential (VT, mV).
(§1) Two types of approaches were used in the measurement of colonic HCO3^− secretion, namely, measurement of lumen pH or pH stat titration of net alkalinization by colonic mucosa. […] The amount of the acid delivered per unit time per surface area was used to quantitate HCO3^− secretion by the mucosa. Measurements were recorded continuously and mean values for consecutive 5 or 10 min periods were averaged. The rate of HCO3^− secretion (JHCO3) is expressed as μEq/hr/cm^2. The short-circuit current (Isc) was measured in microamperes (μA) and converted into μEq/hr/cm^2. Tissue resistance (R, Ω cm^2) was calculated from Ohm's law.
Two equal pieces of mucosa from each colon that were obtained by longitudinal division along the antimessenteric border were mounted into two Ussing chambers. […] After 15 to 30 min, when stabilization was achieved and basal lumen pH recordings performed, HCO3^−-free Ringer solution in the serosal side was replaced by 25 mM HCO3-containing Ringer solution, and changes in lumen pH were monitored and recorded for 15 to 30 min. […]

ENaC = ENaC activity as amiloride-sensitive bumetanide-insensitive Isc, weanling distal colon; parameters: species or system rat; conditions: 2.5% w/w added to diet vs normal 1%; 3 week old rats, distal colon
Protocol: FIG. 17. The inhibitory effect of […] on ENaC was examined electrophysiologically by measuring amiloride-sensitive short-circuit current responses in the presence or absence of […]. Weanling infant distal colonic mucosa, which expresses highest activity of ENaC, is employed and mounted in Ussing chamber. FIGS. 19A-19C. […] Here, the activity of ENaC is measured as amiloride-sensitive bumetanide-insensitive Isc. […] FIGS. 20A-20C. […] The activity of ENaC was measured as amiloride-sensitive bumetanide-insensitive Isc. […] Secretory Cl current is mediated by apical CFTR. This Cl secretory Isc is sensitive to bumetanide, applied to the basolateral side of the epithelium. There, bumetanide inhibits Cl entry from blood into the cell; thus, in the presence of bumetanide, the secretory Cl current is eliminated. Absorptive Na current is mediated by apically located epithelial Na channel (ENaC). This latter current is particularly high in this weanling age and is sensitive to amiloride, when it is applied luminally.

Cl^−/HCO3^− exchange = Cl^−/HCO3^− exchange activity (Cl^−-dependent HCO3^− secretion); parameters: species or system rat; conditions: pretreatment, 100 μM, lumen side (data not shown)
Protocol: Stripped mucosal sheets were mounted into Ussing chambers (window area=0.3-0.5 cm^2, Physiologic Instruments, San Diego, Calif.). The mucosal side of tissue was bathed with an unbuffered HCO3^−-free Cl^− Ringer solution (see Table 2 for detailed composition) circulated by a gas lift with 100% O2 while the serosal side was bathed with buffered Cl^− Ringer solution (pH 7.4) that contained 25 mM HCO3^− and gassed with 5% CO2/95% O2. Each side contained 3-5 ml of solution and the temperature of the solution was adjusted to and maintained at 37° C. by heated water-jacketed reservoirs. […]
as §1, with “law. […]” for “law.”

[2] = test system: CFTR-mediated and non CFTR-mediated HCO3^− secretion; experiment: Isc and pH stat HCO3^− secretion with/without lumen Cl^−, CFTR inhibitors or DIDS (FIGS. 5, 6); conditions: R568 response
Source text: FIG. 3. Experimental approach 1: The Ussing chamber pH-stat set up used to monitor and measure HCO3^- secretion by colonic mucosa. FIG. 4. Experimental Approach 2: Measurement of HCO3^- secretion by colonic mucosa in the presence of apical NPPB/Glibenclamide. FIGS. 5A-5F. Activation of CaSR by […] inhibits CFTR-mediated HCO3^- secretion (JHCO3) and ISC but stimulates non CFTR-mediated HCO3^- secretion (JHCO3) and Isc. Physiological approach assayed with, versus without, lumen Cl^-. FIGS. 6A-6F. Activation of CaSR by […] inhibits CFTR-mediated HCO3^- secretion (JHCO3) and ISC but stimulates CFTR-independent HCO3^- secretion (JHCO3) and Isc. Pharmacological approach assayed with, and without, CFTR transporter inhibitors or AE inhibitor DIDS.

[3] = test system: cAMP-dependent HCO3^− secretion; experiment: Cyclic nucleotide (cAMP)-dependent HCO3^− secretion, lumen Cl^−/SCFA-free; parameters: species or system rat; conditions: luminal; glibenclamide 100 μM, GlyH-101 10 μM, NPPB 100 μM (data not shown)
Protocol: Stripped mucosal sheets were mounted into Ussing chambers (window area=0.3-0.5 cm^2, Physiologic Instruments, San Diego, Calif.). The mucosal side of tissue was bathed with an unbuffered HCO3^--free Cl^- Ringer solution (see Table 2 for detailed composition) circulated by a gas lift with 100% O2 while the serosal side was bathed with buffered Cl^- Ringer solution (pH 7.4) that contained 25 mM HCO3^- and gassed with 5% CO2/95% O2. Each side contained 3-5 ml of solution and the temperature of the solution was adjusted to and maintained at 37° C. by heated water-jacketed reservoirs. Experiments were performed under short-circuit conditions (Voltage-Current Clamp, VCC MC8; Physiologic Instruments, San Diego, Calif.) to maintain the transepithelial potentials at 0 mV, except for brief interruption at 20-second intervals for recording of open-circuit potential (VT, mV). Two types of approaches were used in the measurement of colonic HCO3^- secretion, namely, measurement of lumen pH or pH stat titration of net alkalinization by colonic mucosa. […] Radiometer Analytical, Villeurbanne, France). The amount of the acid delivered per unit time per surface area was used to quantitate HCO3^- secretion by the mucosa. Measurements were recorded continuously and mean values for consecutive 5 or 10 min periods were averaged. […] The short-circuit current (Isc) was measured in microamperes (μA) and converted into μEq/hr/cm^2. Tissue resistance (R, Ω cm^2) was calculated from Ohm's law. Colon segments were prepared and treated as in the secretagogue-induced HCO3^- secretion experiments except that they were bathed luminally with HCO3^--free Ringer solution that contained no isobutyrate and no Cl^-. Cyclic nucleotide-dependent HCO3^- secretion was calculated as […] (the difference between JHCO3 after minus JHCO3 before the addition of forskolin). When inhibitor was used, it was added at 30 min before […] or forskolin.

CCCCNc1cc(C(=O)O)cc(S(N)(=O)=O)c1Oc1ccccc1 [Bumetanide]
inhibition of forskolin-induced Cl^− secretion [1]: ~70%

[Ca+2] [Ca^2+]
basal Isc (distal colonic mucosa; 0.5 mM [Ca^2+]o): 1.44±0.32 μEq/hr/cm^2 | basal Isc (distal colonic mucosa; 1.2 mM [Ca^2+]o): 1.10±0.10 μEq/hr/cm^2 | lumen alkalinization rate (distal colonic mucosa; [Ca^2+]o = 0.5 mM): 0.013±0.002 pH unit/min/cm^2 | lumen alkalinization rate (distal colonic mucosa; [Ca^2+]o = 1.2 mM): 0.031±0.002 pH unit/min/cm^2 | amiloride-sensitive ENaC-mediated basal Isc (ENaC): suppressed

C[N+](C)(C)CCOC(N)=O [Carbachol]
lumen pH response (distal colonic mucosa; 100 μM, serosa, positive control): initial transient increase followed by a sustained increase in lumen pH

O=S(=O)(O)c1cc(N=C=S)ccc1C=Cc1ccc(N=C=S)cc1S(=O)(=O)O [DIDS, 4,4′-diisothiocyano-2,2′-stilbenedisulfonic acid]
luminal Cl^−-dependent HCO3^− secretory mechanism (Cl^−/HCO3^− exchange): partially abolished | AE-associated current ([2]; FIG. 6C vs. 6A): partially inhibited | CFTR activity (current) ([2]; FIG. 6C vs. 6A): inhibited | HCO3^− secretion rate ([2]; FIG. 6F with 6D): stimulated or did not change

O=C(CNc1ccc2ccccc2c1)N/N=C/c1cc(Br)c(O)c(Br)c1O [GlyH-101]
effect of pretreatment on forskolin stimulatory and R568 inhibitory effects on Isc [3]: abolished

O=C(O)c1cc([N+](=O)[O-])ccc1NCCCc1ccccc1 [NPPB, 5-nitro-2-(3-phenylpropylamino)benzoic acid]
effect of pretreatment on forskolin stimulatory and R568 inhibitory effects on Isc [3]: abolished

COc1ccc(Cl)cc1C(=O)NCCc1ccc(S(=O)(=O)NC(=O)NC2CCCCC2)cc1 [glibenclamide]
effect of pretreatment on forskolin stimulatory and R568 inhibitory effects on Isc [3]: abolished

Source: US20180153826A1, “MATERIALS AND METHODS FOR THE TREATMENT OF CYSTIC FIBROSIS” (UNIVERSITY OF FLORIDA RESEARCH FOUNDATION, INC., priority 2015, published 2018)
